# Measured values: patent publication US20240382508A1, “REGENERATIVE AGENT FOR BONE TISSUE AND LUNG TISSUE, AND PHARMACEUTICAL COMPOSITION FOR REGENERATING BONE TISSUE AND LUNG TISSUE” (NIIGATA UNIVERSITY, priority 2021, published 2024)
# Assays:
# [1] = test system: RUNX2 mRNA, Sp7 mRNA, and Bglap mRNA; assay: RT-PCR of bone regeneration genes in osteoblasts; format: cell-based, mouse; conditions: osteoblasts derived from wild-type mice
# Protocol: Next, the proportion (%) of bone nodules with respect to the observation region in the above-described osteoblasts was calculated from microscopic images by using image processing software (NIH Image). In addition, RNA was extracted from each of the osteoblasts by using an RNeasy Kit (manufactured by QIAGEN NV), subsequently cDNA was synthesized by using a cDNA synthesis kit (manufactured by Thermo Fisher Scientific, Inc.), and the relative expression levels of RUNX2 mRNA, Sp7 mRNA, and Bglap mRNA, which are important for bone regeneration, were checked by an RT-PCR method (Quantstudio3, Thermo Fisher Scientific, Inc.). Regarding primers, designed primers manufactured by Thermo Fisher Scientific, Inc. were used. The Assay IDs of the primers used are shown below.
# [2] = test system: rheumatoid arthritis model mice; assay: rheumatoid arthritis (CAIA) model, microCT of hind limb; format: in vivo, mouse
# Protocol: Rheumatoid arthritis (CAIA) (a collagen antibody-administered arthritis-inducing cocktail manufactured by Chondrex, Inc. was used, and the details of the production method were performed according to the protocol provided by Iwai Chemicals Co., Ltd.) was induced by using 6-week-old wild-type mice (N=4, male C57BL/6N mice, manufactured by CLEA Japan, Inc.) and 6-week-old DEL-1-deficient mice (N=4, male C57BL/6N mice (manufactured by CLEA Japan, Inc.), the method for producing the deficient mice was as described in Non Patent Document 1), and erythromycin (10 mg/kg) was intraperitoneally administered once every 3 days from the 1st day after the induction. Regarding the DEL-1-deficient mice, a group in which DEL-1 (10 μg) was administered through the tail vein once every 3 days from the 1st day after the CAIA induction, was also prepared. Nine days after the administration, the hind limb of each mouse was examined by microCT.
# [3] = test system: bone defects in the jawbones; assay: jawbone defect regeneration in cynomolgus monkeys (microCT); format: in vivo; conditions: 200 μg at bone defect site, one month
# Protocol: Bone defects with a diameter of 2 cm and a depth of 2 cm were artificially produced in the jawbones of young (2 years old) and aged (10 years old) cynomolgus monkeys by using a round steel bar. Next, 200 μg of each of erythromycin, clarithromycin, and azithromycin were added to the bone defect sites. As controls, a non-administered group and a group administered with 200 μg of REGROTH (registered trademark), which has been approved as a bone regenerative agent, were also prepared. The amount of bone regeneration after one month from the administration of each drug was checked by using microCT. In FIG. 10, the symbol * indicates p<0.01.
# [4] = test system: experimental periodontitis model mice; assay: bone regeneration in experimental periodontitis model mice (teeth ligated with silk threads); format: in vivo, mouse
# From the text: Experimental periodontitis model mice in which teeth are ligated with silk threads are useful models for inflammatory bone destruction research because inflammations and bone resorption occur in about 10 days after the ligation. The above-described experimental periodontitis models were produced by using 6-week-old wild-type mice (N=8, male C57BL/6N mice, manufactured by CLEA Japan, Inc.), 22-month-old aging mice (N=4, male C57BL/6N mice, manufactured by CLEA Japan, Inc.), and 6-week-old DEL-1-deficient mice (N=8, male C57BL/6N mice (manufactured by CLEA Japan, Inc.), a method for producing the deficient mice was as described in Non Patent Document 1), the silk threads were removed 10 days after the ligation, a remission phase of inflammation of 5 days passed, and in the wild-type mice, new bone formation was recognized at the site of resorbed bone defect while no repair mechanism of the periodontal tissue by DEL-1 was recognized.
# The experimental periodontitis models described in Example 1 were produced by using 6-week-old wild-type mice (N=8, male C57BL/6N mice, manufactured by CLEA Japan, Inc.), 22-month-old aging mice (N=4, male C57BL/6N mice, manufactured by CLEA Japan, Inc.), and 6-week-old DEL-1-deficient mice (N=8, male C57BL/6N mice (manufactured by CLEA Japan, Inc.), a method for producing the deficient mice was as described in Non Patent Document 1), the silk threads were removed 10 days after the ligation to experimentally induce periodontitis, subsequently a bone regeneration period of 5 days was provided, and then the amount of regeneration of resorbed bone was measured using a stereomicroscope and image measurement software (manufactured by Nikon Corporation). Erythromycin (10 mg/kg) and ethanol (final concentration 0.1% by mass) were intraperitoneally administered once after the removal of the silk threads. In addition, DEL-1 (1 μg) and Fc control (0.84 μg) were directly inoculated into the gingiva after the removal of the silk threads. The results are shown in FIG. 3 (left: wild-type mice, right: DEL-1-deficient mice) and FIG. 4 (aging mice).
# Next, the experimental periodontitis model described in Example 1 was produced by using 22-month-old aging mice (N=4, male C57BL/6N mouse, manufactured by CLEA Japan, Inc.), the silk threads were removed 10 days after the ligation to experimentally induce periodontitis, subsequently a bone regeneration period of 5 days was provided, and the amount of regeneration of resorbed bone was measured using a stereomicroscope and image measurement software (manufactured by Nikon Corporation). Erythromycin (ERM) (20 mg/kg), azithromycin (AZM) (20 mg/kg), clarithromycin (CLM) (20 mg/kg), and ethanol (final concentration 0.1% by mass) as a control were intraperitoneally administered once after the removal of the silk threads. […] In addition, there was no difference in the amount of bone regeneration between the macrolide antimicrobial agent-administered groups.
# [5] = test system: iCell mesenchymal stem cells; assay: bone nodule measurement in mesenchymal stem cells induced from human iPS cells; format: cell-based; conditions: 10 μg/mL for each; 15 days; bone differentiation medium
# Protocol: iCell (registered trademark) mesenchymal stem cells (iCell (registered trademark) MSCs) (#01279, manufactured by Fujifilm Corporation) (1×10^4 cells/mL) obtained by inducing human mesenchymal stem cells from iPS cells, were cultured in α-MEM and a bone differentiation medium (containing 50 μg/mL ascorbic acid and 10 mM β-glycerol 2-phosphate). Ethanol (final concentration 0.1% by mass), or erythromycin, clarithromycin, or azithromycin (10 μg/mL for each) was added to the medium. The medium was exchanged every 3 days, and after 15 days, the cells were stained with Alizarin red S, followed by performing of bone nodule measurement. The results are shown in FIG. 18 (stained images) and FIG. 19 (graph showing the proportion of bone nodules). In FIG. 18 and FIG. 19, the ethanol (final concentration 0.1% by mass)-added group is a control. In FIG. 19, the symbol * indicates p≤0.05, the symbol ** indicates p≤0.01, the symbol *** indicates p≤0.001, and the symbol **** indicates p≤0.0001.
smiles,measurement,setting,value
CC[C@H]1OC(=O)[C@H](C)[C@@H](O[C@H]2C[C@@](C)(OC)[C@@H](O)[C@H](C)O2)[C@H](C)[C@@H](O[C@@H]2O[C@H](C)C[C@H](N(C)C)[C@H]2O)[C@](C)(O)C[C@@H](C)C(=O)[C@H](C)[C@@H](O)[C@]1(C)O [erythromycin],expression of Bglap mRNA,[1],increases in the expression
same,expression of RUNX2 mRNA,[1],increases in the expression
same,expression of Sp7 mRNA,[1],increases in the expression
same,bone destruction (FIG. 6),"[2]; DEL-1-deficient mice, erythromycin 10 mg/kg intraperitoneally or DEL-1 10 μg tail vein once every 3 days",bone destruction was not suppressed
same,bone destruction (FIG. 6),"[2]; wild-type mice, erythromycin 10 mg/kg intraperitoneally once every 3 days",bone destruction was suppressed
same,bone regeneration effect (FIG. 10),[3]; aged (10 years old) cynomolgus monkeys,a bone regeneration effect was recognized
same,bone regeneration effect (FIG. 10),[3]; young (2 years old) cynomolgus monkeys,a bone regeneration effect was recognized
same,bone regeneration (FIG. 3),"[4]; 6-week-old wild-type mice, erythromycin 10 mg/kg intraperitoneally once, 5 days regeneration period",bone regeneration was recognized irrespective of the presence or absence of the administration of erythromycin
same,bone regeneration (FIG. 9),"[4]; 22-month-old aging mice, 20 mg/kg intraperitoneally once, 5 days regeneration period",bone regeneration was recognized
same,bone regeneration (FIG. 4),"[4]; 22-month-old aging mice, erythromycin 10 mg/kg intraperitoneally once or DEL-1 1 μg into the gingiva, 5 days",bone regeneration was recognized
same,bone regeneration (FIG. 3),"[4]; DEL-1-deficient mice, erythromycin 10 mg/kg intraperitoneally once or DEL-1 1 μg into the gingiva, 5 days",bone regeneration was not recognized
same,"formation of bone nodules (FIG. 18, FIG. 19)",[5],the formation of bone nodules was recognized
